Results taken from patent publication US20240139205A1, “MODULATORS OF ARALAR FOR TREATING NEUROLOGICAL DISORDERS” (Universite de Lausanne, priority 2020, published 2024).

Assays:
Cyfip^85.1/+ flies [1] = test: competition for food assay (total number of social events) in Cyfip haploinsufficient flies; format: in vivo, Drosophila; conditions: for social behavior deficit (social events): Cyfip^85.1/+ flies fed 5 days, GABA 50 μM, DABA 100 μM, VPA 1 mM; for number of social events: 1 mM in the food, 1 or 2 days
Description: (§1) Experiments were performed with socially experienced, 3-7 days-old male flies. Groups of eight males from the same genotype were anesthetized 24 h prior to the assay and placed in vials with food. On the day of the assay, the males were transferred without anesthesia to an empty vial and were deprived of food for 90 minutes, after which they were exposed to a food droplet and given 2 minutes to acclimate to this disturbance. The flies were then observed simultaneously for an additional 2 minutes, and the total number of social events was scored. Monitored social events were i.e. approaches, lunges, tussles, wing threat and the initiation of courtship. Of note, one interaction involving two or more flies was counted as one social event in total (Zwarts (2011), PNAS 108, 17070-17075. The behavioral assays were conducted in a behavioral chamber (25° C., 60-70% humidity) between 8 a.m. and 11 a.m. Statistics were calculated using a one-way fixed effect ANOVA model, and Kruskal Wallis test in combination with Dunn's multiple comparison test.
(§2) Example 8. GABA augmentation fully normalizes the behavioral abnormalities of Cyfip^85.1/+ flies. GABA levels were augmented in Cyfip^85.1/+ flies in three distinct ways: flies were fed either GABA, DL-2,4-diaminobutyric acid (DABA) which is a GABA-transaminase inhibitor and/or a GABA reuptake inhibitor or the anticonvulsant valproic acid (VPA) which induces GABA release (Chateauvieux (2010), Journal of biomedicine & biotechnology 2010; Coghlan (2012), Neurosci Biobehav Rev 36, 2044-2055; Reynolds (2007), Current medicinal chemistry 14, 2799-2812). All compounds were purchased from Sigma-Aldrich and were used as described before (Kanellopoulos (2012), J Neurosci. 32(38):13111-24; Zwarts (2011), PNAS 108, 17070-17075). In brief, the drugs were dissolved as per the manufacturer's instructions and used at the following concentrations: GABA at 50 μM, DABA 100 μM, Valproic acid (VPA) at 1 mM and Diazepam at 50 μM. Compounds in solution were mixed with Formula 4-24® Instant Drosophila Medium (blue food) in water. Approximately 50-60 adult flies were placed in plastic vials containing 500 μl of each solution on top of an agar matrix and allowed to feed ad libitum before behaviour analysis. Vehicle treatment consisted of solvent added to blue food alone.
Example 16. Drug screening to identify compounds that ameliorate social behavior deficits in flies with Cyfip haploinsufficiency. Control (w1118) or CYFIP (Cyfip^85.1/+) flies were treated, i.e. fed, with various compounds from the Prestwick Chemical Library® as described in Examples 8 and 15. All compounds were used at a concentration of 50 μM. The total number of social interactions was analyzed in a competition for food assay at various time-points (1, 2 or 5 days) of treatment with the compound or vehicle controls as described in Example 2.

[2] = system: flies with GABAergic-specific or pan-neuronal Cyfip abrogation; test: competition for food assay (social interactions) in flies with Cyfip abrogation (UAS-Cyfip-IR); format: in vivo, Drosophila; conditions: for social interactions: flies with GABAergic-specific Cyfip abrogation, GABA, DABA or VPA in food
Description: To control Cyfip expression, the tissue specific GAL4/UAS system was employed (Brand and Perrimon, 1993). […] Specifically, the UAS-Cyfip-RNAi transgene (UAS-Cyfip-IR) was used to abrogate Cyfip expression as described in Galy et al., 2011. To generate GAL4/UAS-Cyfip-IR flies, GAL4/GAL4 females were crossed en masse to UAS-Cyfip-IR/UAS-Cyfip-IR males. The GAL4 drivers are described in Kanellopoulos (2012), J Neurosci. 32(38):13111-24. GAL4 and UAS lines have been isogenized for 6 generations with the w1118 background before crossing. GAL4/GAL4 and UAS-Cyfip-IR/UAS-Cyfip-IR females were also crossed with w^1118 males to generate GAL4/+ and UAS-Cyfip-IR/+ progeny respectively that served as controls which should not produce the RNAi construct.
Tissue-specific GAL4 expression was achieved using the tissue-specific GAL4 promoters as follows: pan-neuronal (Elav), in cholinergic (Cha-Gla4), and GABAergic (Gad-Gal4). To avoid neurodevelopmental problems and possible lethality, the ElavGal4, was combined with the temporal TubGal80^ts system (McGuire et al., 2003; McGuire et al., 2004). At 18° C., TubGal80^ts is expressed and binds GAL4, prohibiting its binding to the UAS (i.e., no transcription of UAS-Cyfip-IR). In contrast, at 29-30° C. TubGal80^ts is degraded and will release GAL4 which in turn will bind the UAS thus activating transcription of UAS-Cyfip-IR. […] All flies/progeny for promoter-Gal4;TubGal80^ts and their controls were cultured at 18° C. and 2-days after eclosion were placed at 29-30° C. allowing UAS-Cyfip-IR transcription.
as §1
Example 8. GABA augmentation fully normalizes the behavioral abnormalities of Cyfip^85.1/+ flies. […]

Cyfip^85.1/+ flies [3] = test: Drosophila locomotor activity (DAM system); format: in vivo; conditions: 10 μM rotenone for 4 days
Description: The Drosophila Activity Monitoring (DAM) system from Trikinetics Inc. (Walthman, MA) was used to record the locomotor activity of flies. Male flies (1-week old), anesthetised on ice, were individually loaded into the locomotor activity-monitoring tubes, thin 5 mm diameter polycarbonate tubes containing 5% sucrose and 2% agar food and incubated for at least 4 days under 12:12 LD (light-dark) conditions at 25° C. and 50-60% humidity. Light was turned on at 7:30 am and turned off at 7:30 pm. The DAM system software counts the number of times the single fly walks through an infrared beam aimed at the middle of the tube. Data were recorded as the number of crossings (transitions) per bin of 5-30 minutes. To allow the flies to recover from anaesthesia and to get acclimatized to the new environment data from the first day was excluded from the analysis. Two independent experiments were performed and at least 40 flies for each genotype were analysed. Statistical analysis was conducted using GraphPad Prism 6.0 software. Data were evaluated by one-way analysis of variance (ANOVA) with Sidak's post hoc test and by non-parametric Kruskal-Wallis's test with Dunn's correction.

wild type flies = test: competition for food assay (total number of social events) in wild type (control) flies; format: in vivo, Drosophila
Description: as §1, §2

[4] = system: mitochondrial membrane potential; conditions: literature statement; cited from earlier work
GABA release = conditions: literature statement (Amoroso 1990); cited from earlier work

## Cc1ccccc1C(C(=O)NC1CCCC1)N(C(=O)Cn1cnc2ccccc21)c1cccc(F)c1 (stereo not drawn) [ML309, 2-(N-[2-(benzimidazol-1-yl)acetyl]-3-fluoroanilino)-N-cyclopentyl-2-(2-methylphenyl)acetamide]
Cyfip^85.1/+ flies [1]; Cyfip^85.1/+ flies, ML309 with the food at 50 µM, 1 or 3 days
  abnormal social feeding behavior (social events, competition for food): ameliorated the abnormal social feeding behavior

## NCCC(N)C(=O)O (racemic) [DABA, DL-2,4-diaminobutyric acid]
Cyfip^85.1/+ flies [1]
  social behavior deficit (social events): ameliorated the social behavior deficit
[2]
  social interactions: restored the social interactions

## C=C(C)[C@H]1Cc2c(ccc3c2O[C@@H]2COc4cc(OC)c(OC)cc4[C@@H]2C3=O)O1 [rotenone]
Cyfip^85.1/+ flies [3]
  hyperactivity (locomotion over 24 hours): did not restore the hyperactivity
Cyfip^85.1/+ flies [3]; listed as Rotenone
  hyperactivity (locomotion over 24 hours): does not rescue hyperactivity
Wild type flies; wild type flies, rotenone 1-10 μM in the food, 4 days
  behavior of wild type flies (competition for food): no effect
Cyfip^85.1/+ flies [1]; Cyfip^85.1/+ flies treated 4 days with rotenone, tested for 5 days post-treatment
  reversibility of the effect of treatment on social behavior: reversible
Cyfip^85.1/+ flies [1]; Cyfip^85.1/+ flies, rotenone 1-10 μM in the food, 4 days
  social deficits (competition for food): ameliorate social deficits

## CCCC(CCC)C(=O)O [VPA, valproic acid]
Cyfip^85.1/+ flies [1]
  social behavior deficit (social events): ameliorated the social behavior deficit
[2]
  social interactions: restored the social interactions

## CCCNC(=O)NS(=O)(=O)c1ccc(Cl)cc1 [Chlorpropamide, (1-[p-Chlorobenzenesulfony1]-3-propylurea)]
[4]
  mitochondrial membrane potential: decrease the mitochondrial membrane potential
GABA release
  GABA release: indirectly increase GABA release

## O=C1CCc2ccc(OCCCCN3CCN(c4cccc(Cl)c4Cl)CC3)cc2N1 [Aripiprazole, 7-[4-[4-(2,3-dichlorophenyl)piperazin-1-yl]butoxy]-3,4-dihydro-1H-quinolin-2-one]
[4]
  mitochondrial membrane potential: decreases the mitochondrial membrane potential

## NCCCC(=O)O [GABA, gamma-Aminobutyric acid]
Wild type flies; adult wild-type flies, high GABA diet, 5 days
  social interaction: decreased social interaction
Cyfip^85.1/+ flies [1]
  social behavior deficit (social events): ameliorated the social behavior deficit
Cyfip^85.1/+ flies [1]; Cyfip^85.1/+ flies treated 5 days with GABA, tested post treatment
  duration of the effect post treatment (competition for food): 2 days
[2]; adult pan-neuronal Cyfip abrogation, GABA feeding 5 days
  behavioral deficits (social interactions): rescued behavioral deficits
[2]
  social interactions: restored the social interactions

## CC(=O)c1ccc(S(=O)(=O)NC(=O)NC2CCCCC2)cc1 [Acetohexamide, 4-Acetyl-N-[(cyclohexylamino)carbonyl]benzenesulfonamide]
[4]
  mitochondrial membrane potential: decrease the mitochondrial membrane potential
GABA release
  GABA release: indirectly increase GABA release

## COc1ccc(CN2CCNCC2)c(OC)c1OC.Cl.Cl [Trimetazidine dihydrochloride, 1-[(2,3,4-trimethoxyphenyl)methyl]piperazine dihydrochloride]
[4]
  mitochondrial membrane potential: balances the mitochondrial membrane potential

## 4-formyl-5-hydroxy-6-methylpyridin-3 yl) methyl dihydrogen phosphate [pyridoxal 5′-phosphate hydrate]
Wild type flies; wild type flies, 1 mM in the food, 2 days
  number of social events: reduced the number of social events
Cyfip^85.1/+ flies [1]; Cyfip^85.1/+ flies
  number of social events: rescues the deficits in social behavior
Cyfip^85.1/+ flies [1]; Cyfip^85.1/+ flies, listed as PLP
  number of social events: increased the number of social events to the level observed for normal wild type flies
